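Values below derive from 48-hour exposures of cells grown in 96-well plates, with endpoints linearly interpolated between the two concentrations bracketing the appropriate inhibition level. The concentration for 50% growth inhibition is given as GI50. TGI: total growth inhibition.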
Assays:
Experiment in all cases: growth of human tumour cells (NCI), 48 h
[1] = tested on: A549 NSCLC
[2] = tested on: COLO 205 colon
[3] = tested on: HCT-116 colon
[4] = tested on: HOP-92 NSCLC
[5] = tested on: NCI-H522 lung
[6] = tested on: SK-MEL-2 melanoma
[7] = tested on: SK-MEL-28 melanoma
[8] = tested on: SW-620 colon
[9] = tested on: TK-10 renal
[10] = tested on: UO-31 renal
[11] = tested on: HS 578T breast
[12] = tested on: MDA-N
[13] = tested on: NCI-H226 lung

Structure (SMILES)	TGI [1] [µM]	TGI [2] [µM]	TGI [3] [µM]	TGI [4] [µM]	TGI [5] [µM]	TGI [6] [µM]	TGI [7] [µM]	TGI [8] [µM]	TGI [9] [µM]	TGI [10] [µM]	TGI [11] [µM]	TGI [12] [µM]	TGI [13] [µM]	GI50 [1] [µM]	GI50 [4] [µM]	GI50 [13] [µM]	GI50 [5] [µM]	GI50 [6] [µM]	GI50 [9] [µM]	GI50 [10] [µM]
COc1ccc(-c2nc3c(nc2-c2ccc(OC)cc2)N(C)S(=O)(=O)N=C3N)cc1	> 100	32.5	30.7	51.6	36	57.7	> 100	> 100	> 100	53.2	–	–	–	–	–	–	–	–	–	–
Brc1ccc(-c2cc(-c3ccc4c(c3)OCO4)c(-c3cccs3)n2Cc2ccccc2)cc1	> 100	> 100	> 100	–	–	> 100	> 100	> 100	> 100	> 100	> 100	> 100	–	–	–	–	–	–	–	–
Cc1c(-c2ccc(O)c(O)c2)oc(=O)c2c(O)cccc12	> 100	30.1	20	58.2	15.5	28	–	61.2	67	24.4	23.9	–	–	–	–	–	–	–	–	–
NC(=O)C1N=NSC1NC(=O)c1ccc([N+](=O)[O-])cc1 (stereo not drawn)	> 100	> 100	> 100	–	–	65	> 100	> 100	> 100	> 100	> 100	> 100	> 100	–	–	–	–	–	–	–
O=S(=O)(O)c1ccccc1N=Nc1ccc(N=Nc2c(O)ccc3ccccc23)c(S(=O)(=O)O)c1	> 100	> 100	> 100	> 100	> 100	> 100	> 100	> 100	> 100	> 100	> 100	–	> 100	–	–	–	–	–	–	–
CCc1c(C)c2ccc(OCC(=O)N=Nc3c(O)[nH]c4ccccc34)c(C)c2oc1=O	> 33.3	–	–	1.56	1.81	> 33.3	–	–	> 33.3	> 33.3	–	–	> 33.3	> 33.3	0.69	> 33.3	0.77	> 33.3	> 33.3	> 33.3
CCCCc1c2c(nc3c1CC/C(=C\c1ccc([N+](=O)[O-])cc1)C3=O)CCCC2	16.3	6.63	3.22	–	2.84	–	3.12	3.53	3.17	4.13	–	–	6.5	–	–	–	–	–	–	–
CC#CCCCC1(C)CCCNC1=S (stereo not drawn)	> 10	–	–	> 10	> 10	> 10	–	> 10	> 10	> 10	> 10	–	–	–	–	–	–	–	–	–
Cc1ccc(C)c(COCCOCn2c(=O)[nH]c(=O)c3cc(Br)ccc32)c1	> 100	> 100	> 100	> 100	> 100	> 100	> 100	> 100	> 100	> 100	–	> 100	> 100	–	–	–	–	–	–	–
COC(=O)C1=COc2c(n(C)c3ccccc23)-c2ccccc21	–	> 100	> 100	–	–	> 100	–	> 100	> 100	> 100	> 100	> 100	> 100	–	–	–	–	–	–	–
NC(=O)CNC(=O)[C@@H]1C[C@@H](OCCC(=O)O)CN1C(=O)OCc1ccccc1	> 100	> 100	> 100	–	> 100	> 100	> 100	> 100	> 100	> 100	> 100	> 100	> 100	–	–	–	–	–	–	–
CN(C)Cc1cc(C(=O)/C=C/c2ccc(F)cc2)cc(CN(C)C)c1O	> 100	–	27	97.5	31.7	–	> 100	75.5	> 100	38.9	86.9	–	> 100	–	–	–	–	–	–	–
CC(=O)N(C(C)=O)n1nc2c(n1)C(=O)c1ccccc1C2=O	> 100	> 100	> 100	> 100	> 100	> 100	> 100	> 100	> 100	> 100	> 100	> 100	–	–	–	–	–	–	–	–
S=C(c1c[nH]c2ccccc12)N1CCCCC1	–	> 100	> 100	–	–	> 100	> 100	> 100	> 100	–	> 100	> 100	> 100	–	–	–	–	–	–	–
O=C1CCCC2=C1CC1=C(CCCC1=O)N2c1cccc([N+](=O)[O-])c1	> 100	–	–	–	–	–	> 100	> 100	> 100	> 100	> 100	–	> 100	–	–	–	–	–	–	–
COC1=CC(=O)NCCN1	> 100	> 100	> 100	> 100	> 100	> 100	> 100	50.9	> 100	> 100	–	–	> 100	–	–	–	–	–	–	–

Structure (SMILES)	TGI [1] [µM]	TGI [2] [µM]	TGI [3] [µM]	TGI [4] [µM]	TGI [5] [µM]	TGI [6] [µM]	TGI [7] [µM]	TGI [8] [µM]	TGI [9] [µM]	TGI [10] [µM]	TGI [11] [µM]	TGI [12] [µM]	TGI [13] [µM]	GI50 [1] [µM]	GI50 [4] [µM]	GI50 [13] [µM]	GI50 [5] [µM]	GI50 [6] [µM]	GI50 [9] [µM]	GI50 [10] [µM]
CN=C(NC)N(C)c1nc(=[N+](C)C)ss1	> 100	–	> 100	> 100	> 100	> 100	> 100	> 100	> 100	> 100	–	–	> 100	–	–	–	–	–	–	–
Nc1ccc(OCCCc2c(-c3ccccc3)nc(N)[nH]c2=O)cc1	–	> 100	> 100	–	> 100	–	> 100	> 100	–	> 100	> 100	> 100	> 100	–	–	–	–	–	–	–
NC(C(=O)OC(=O)c1ccccc1)C(=O)OC(=O)c1ccccc1	> 100	> 100	> 100	–	> 100	> 100	> 100	> 100	> 100	> 100	> 100	–	> 100	–	–	–	–	–	–	–
O=P1(Oc2ccccc2)NCc2ncccc2O1 (stereo not drawn)	> 100	> 100	> 100	> 100	–	> 100	> 100	> 100	–	> 100	–	> 100	> 100	–	–	–	–	–	–	–
O=C(CCc1ccc(O)cc1)NCCCNC(=O)CCc1ccc(O)cc1	> 100	> 100	> 100	–	> 100	> 100	> 100	> 100	–	> 100	> 100	> 100	> 100	–	–	–	–	–	–	–
CC(C)(SCc1ccccc1)C(N)C(=O)O (stereo not drawn)	> 100	–	> 100	> 100	> 100	> 100	> 100	> 100	> 100	> 100	–	> 100	> 100	–	–	–	–	–	–	–
COC[C@@H](N=CN1CCc2cc(OC)c(OC)cc2C1)C(C)(C)C	> 100	> 100	> 100	> 100	> 100	–	> 100	> 100	> 100	> 100	–	–	> 100	–	–	–	–	–	–	–
CCN(CC)CC(=O)Nc1ccc2c(c1)C(=O)c1ccc(NC(=O)CN(CC)CC)cc1C2=O	> 100	54.1	30.5	> 100	43.2	> 100	> 100	69.8	> 100	> 100	–	–	–	–	–	–	–	–	–	–
O=[N+]([O-])c1ccc(O)c(C=NCC2CCCN3CCCCC23)c1 (stereo not drawn)	> 100	75.9	> 100	–	> 100	–	–	–	> 100	> 100	46.6	> 100	89.9	–	–	–	–	–	–	–
Clc1cccc2c1OCC1C(c3ccccc3)=NN(c3ccccc3)C21 (stereo not drawn)	> 100	> 100	> 100	> 100	> 100	> 100	> 100	> 100	> 100	> 100	–	–	–	–	–	–	–	–	–	–
CC1=C/C(=C2/N=C(N(C)C)SS2)C(C)=N1	> 100	> 100	> 100	> 100	> 100	–	> 100	> 100	> 100	> 100	–	–	> 100	–	–	–	–	–	–	–
Cc1nc2ccccc2n1Cc1nnc2n1N=C(c1ccccc1)CS2	> 100	> 100	> 100	–	71.2	40.7	> 100	> 100	> 100	> 100	> 100	> 100	> 100	–	–	–	–	–	–	–
COc1ccc2c(c1)CCN1C3=C(CCC3)C(=O)C[C@@H]21	> 100	> 100	> 100	> 100	> 100	> 100	> 100	> 100	> 100	> 100	–	–	> 100	–	–	–	–	–	–	–
CC(=O)C1=C(C)N(c2ccccc2)C2(O)C=CC(=O)C3=C(O)c4ccccc4C(=O)C312 (stereo not drawn)	> 100	36.8	> 100	63.9	36.4	39.2	52.2	> 100	46.2	33.7	> 100	–	59.2	–	–	–	–	–	–	–
O=C1CCCC[C@H]1C(O)CC1CC(=O)N(c2ccccc2)C(=O)C1 (stereo partly drawn)	> 100	–	> 100	> 100	> 100	–	> 100	> 100	> 100	> 100	> 100	> 100	> 100	–	–	–	–	–	–	–

Reference: PubChem BioAssay (NCI)
